Measured values reported in publication PMC12777568 (Antimicrobial Agents and Chemotherapy, 2025).

How the values were obtained:
[1] = parameters: method as in earlier work; conditions: cited from earlier work
[2] = BIC plasma pharmacokinetics, Phase 1 open-label single-dose DDI study GS-US-380-3909 (B/F/TAF 50/200/25 mg with antacid or mineral supplements); type: in vivo, human; conditions: for Cmax, reference GLSM: BIC alone (N = 14); for half-life / Vd/F / AUC(0-inf): both sexes, human, plasma, oral; for half-life: BIC T1/2, median (Q1, Q3); for Vd/F: BIC VZ/F; for Vd/F / AUC(0-inf): mean (%CV); for AUC(0-inf): BIC plasma AUCinf
Method: Eligible participants were adult (18–45 years) males and non-pregnant, non-lactating females in good general health at a screening evaluation performed no more than 28 days before the first study dose. […] Full eligibility criteria are available in the supplement. All prescription and over-the-counter medications except vitamins, acetaminophen, ibuprofen, and hormonal contraceptives were not permitted during study participation. Three dosing cohorts were evaluated (Table 1). […] Vitamins and/or other supplements were not permitted on the dosing day. […] Participants received maximum-strength antacid oral suspension (four teaspoons; 20 mL; 1,600 mg aluminum hydroxide/1,600 mg magnesium hydroxide/160 mg simethicone; referred to as “aluminum/magnesium-containing antacid”) on Day 9, calcium carbonate (1,200 mg; 2 × 600 mg tablets) on Day 17, and ferrous fumarate (1 × 324 mg tablet) on Day 25. […] All samples were analyzed within the timeframe determined using frozen stability storage data. […] PK parameters were estimated using Phoenix WinNonlin software (Version 6.4, Pharsight Corporation, Princeton, NJ, USA) using standard noncompartmental analysis methods. […] The estimated 90% CIs were compared to a prespecified lack of DDI boundary of 70%–143%. […] A minimum of 12 evaluable participants in each cohort was calculated to be needed to reject the null hypothesis (i.e., the 90% CI for the GLSM ratio for each PK parameter was outside the prespecified boundary) with ≥90% power.

[3] = Cohort 1 fasted, B/F/TAF + calcium carbonate simultaneous, N = 14
[4] = Cohort 1 fasted, B/F/TAF alone, N = 14
[5] = Cohort 1 fasted, simultaneous aluminum/magnesium-containing antacid
[6] = Cohort 1 fasted, simultaneous calcium carbonate
[7] = Cohort 1 fasted, simultaneous ferrous fumarate
[8] = Cohort 2 fasted, B/F/TAF 2 hours after aluminum/magnesium-containing antacid
[9] = Cohort 2 fasted, B/F/TAF 2 hours after aluminum/magnesium-containing antacid, N = 13
[10] = Cohort 2 fasted, B/F/TAF 2 hours before aluminum/magnesium-containing antacid, N = 13
[11] = Cohort 2 fasted, B/F/TAF alone, N = 14
[12] = Cohort 3, B/F/TAF alone (fasted), N = 14
[13] = Cohort 3 fed, B/F/TAF + aluminum/magnesium-containing antacid simultaneous, N = 14
[14] = Cohort 3 fed, simultaneous aluminum/magnesium-containing antacid
[15] = Cohort 1 fasted, B/F/TAF + aluminum/magnesium-containing antacid simultaneous, N = 14
[16] = Cohort 1 fasted, B/F/TAF + ferrous fumarate simultaneous, N = 14
[17] = Cohort 3 fed, B/F/TAF + ferrous fumarate simultaneous, N = 14

SMILES: O=C(NCc1c(F)cc(F)cc1F)c1cn2c(c(O)c1=O)C(=O)N1[C@H]3CC[C@H](C3)O[C@@H]1C2 [BIC, bictegravir]
- half-life for BIC (median T1/2) [1]: ~ 17 hours
- BIC T1/2, median (Q1, Q3) [2, 3]: 21.0 (17.6, 25.0) h
- BIC plasma Tmax, median (Q1, Q3) [2, 3]: 1.8 (1.5, 4.0) h
- BIC plasma AUCinf, mean (%CV) [2, 4]: 121.9 (24.4) µg*h/mL
- Cmax, reference GLSM ([2]; Cohort 1 fasted): 5.54 µg/mL
- Delay of median Tmax compared with B/F/TAF alone [2, 5]: 1 h
- Increase in mean BIC CL/F compared with B/F/TAF alone [2, 5]: 404%
- Increase in mean BIC Vz/F compared with B/F/TAF alone [2, 5]: 421%
- Reduction in BIC AUCinf compared with B/F/TAF alone [2, 5]: 79%
- Reduction in BIC C24 compared with B/F/TAF alone [2, 5]: 78%
- Reduction in BIC Cmax compared with B/F/TAF alone [2, 5]: 80%
- Increase in mean BIC CL/F compared with B/F/TAF alone [2, 6]: 56%
- Increase in mean BIC Vz/F compared with B/F/TAF alone [2, 6]: 84%
- Reduction in BIC AUCinf compared with B/F/TAF alone [2, 6]: 33%
- Reduction in BIC C24 compared with B/F/TAF alone [2, 6]: 35%
- Reduction in BIC Cmax compared with B/F/TAF alone [2, 6]: 42%
- Delay of median Tmax compared with B/F/TAF alone [2, 7]: 1.5 h
- Increase in mean BIC CL/F compared with B/F/TAF alone [2, 7]: 174%
- Increase in mean BIC Vz/F compared with B/F/TAF alone [2, 7]: 216%
- Reduction in BIC AUCinf compared with B/F/TAF alone [2, 7]: 63%
- Reduction in BIC C24 compared with B/F/TAF alone [2, 7]: 63%
- Reduction in BIC Cmax compared with B/F/TAF alone [2, 7]: 71%
- Cmax, test GLSM ([2]; Cohort 2 fasted, B/F/TAF 2 h before aluminum/magnesium-containing antacid, N = 14): 5.46 µg/mL
- Decrease in BIC AUCinf compared with B/F/TAF alone [2, 8]: 52%
- Decrease in BIC C24 compared with B/F/TAF alone [2, 8]: 53%
- Decrease in BIC Cmax compared with B/F/TAF alone [2, 8]: 59%
- Delay of median Tmax compared with B/F/TAF alone [2, 8]: 1 h
- Increase in mean BIC CL/F compared with B/F/TAF alone [2, 8]: 124%
- Increase in mean BIC VZ/F compared with B/F/TAF alone [2, 8]: 180%
- BIC plasma Tmax, median (Q1, Q3) [2, 9]: 2.0 (1.5, 3.0) h
- Delay of median Tmax compared with B/F/TAF alone ([2]; Cohort 2 fasted, B/F/TAF 2 hours before aluminum/magnesium-containing antacid): 1.5 h
- BIC plasma Tmax, median (Q1, Q3) [2, 10]: 1.5 (1.5, 2.0) h
- BIC T1/2, median (Q1, Q3) [2, 11]: 20.8 (16.5, 22.8) h
- BIC plasma Tmax, median (Q1, Q3) [2, 11]: 3.0 (2.0, 3.0) h
- BIC T1/2, median (Q1, Q3) [2, 12]: 18.0 (17.5, 19.9) h
- BIC plasma Tmax, median (Q1, Q3) [2, 12]: 1.5 (1.5, 2.0) h
- Cmax, reference GLSM ([2]; Cohort 3, fasted): 4.54 µg/mL
- BIC T1/2, median (Q1, Q3) [2, 13]: 17.9 (16.9, 20.2) h
- Decrease in BIC AUCinf compared with B/F/TAF alone under fasted conditions [2, 14]: 47%
- Decrease in BIC C24 compared with B/F/TAF alone under fasted conditions [2, 14]: 44%
- Decrease in BIC Cmax compared with B/F/TAF alone under fasted conditions [2, 14]: 49%
- Delay of median Tmax compared with B/F/TAF alone under fasted conditions [2, 14]: 2 h
- Increase in mean BIC CL/F compared with B/F/TAF alone under fasted conditions [2, 14]: 89%
- Increase in mean BIC Vz/F compared with B/F/TAF alone under fasted conditions [2, 14]: 89%
- Delay of median Tmax compared with B/F/TAF alone under fasted conditions ([2]; Cohort 3 fed, simultaneous calcium carbonate): 2 h
- Delay of median Tmax compared with B/F/TAF alone under fasted conditions ([2]; Cohort 3 fed, simultaneous ferrous fumarate): 2.5 h
- half-life [2, 15]: 1210 min
- half-life [2, 16]: 1310 min
- half-life [2, 4]: 1130 min
- half-life [2, 9]: 1450 min
- half-life [2, 10]: 1310 min
- half-life ([2]; Cohort 3 fed, B/F/TAF + calcium carbonate simultaneous, N = 14): 1130 min
- half-life [2, 17]: 1160 min
- Vd/F [2, 15]: 61.4 L
- Vd/F [2, 3]: 21.7 L
- Vd/F [2, 16]: 37.3 L
- Vd/F [2, 4]: 11.8 L
- Vd/F [2, 9]: 31.2 L
- Vd/F [2, 10]: 14.4 L
- Vd/F [2, 11]: 11.2 L
- Vd/F [2, 13]: 29.1 L
- Vd/F [2, 17]: 19.3 L
- AUC(0-inf) [2, 15]: 28000 ng·h/mL
- AUC(0-inf) [2, 3]: 85000 ng·h/mL
- AUC(0-inf) [2, 16]: 46100 ng·h/mL
- AUC(0-inf) [2, 9]: 67700 ng·h/mL
- AUC(0-inf) [2, 10]: 116000 ng·h/mL
